In ChEMBL document CHEMBL1201862, “PubChem BioAssay data set” (2004):
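Growth conditions: 96-well plates. Treatment: test compound, 48 hours, 5 concentrations. Analysis: linear interpolation between bracketing concentrations; unreached endpoints set to highest concentration. Abbreviation: GI50, concentration required for 50% inhibition of growth.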 Calls of active or inactive are those of the source. Rule as the data show it: active = GI50 up to about 1.1 µM and inactive = higher.

Columns and labels:
Experiment in all cases: DTP human tumour cell line panel, 48 h
[1] = system: HOP-62
[2] = system: OVCAR-8
[3] = system: NCI-H460
[4] = system: NCI/ADR-RES
[5] = system: A549
[6] = system: HOP-92
[7] = system: OVCAR-3
[8] = system: EKVX
[9] = system: SK-MEL-5
[10] = system: HT-29
[11] = system: MDA-N
[12] = system: NCI-H23
[13] = system: SF-268
[14] = system: A498
[15] = system: SF-539
[16] = system: 786-0
[17] = system: SNB-75
[18] = system: IGROV-1
[19] = system: HL-60
[20] = system: SK-OV-3
[21] = system: OVCAR-5
[22] = system: UACC-62
[23] = system: MDA-MB-231
[24] = system: T47D
[25] = system: PC-3
[26] = system: K562
[27] = system: HCC 2998
[28] = system: U-251
[29] = system: SF-295
[30] = system: UACC-257
[31] = system: COLO 205
[32] = system: LOX IMVI
[33] = system: OVCAR-4
[34] = system: HCT-15
[35] = system: SW-620
[36] = system: ACHN
[37] = system: DU-145
[38] = system: SK-MEL-28
[39] = system: TK-10
[40] = system: RXF 393
[41] = system: NCI-H522
[42] = system: SN12C
[43] = system: M14
[44] = system: SNB-19
[45] = system: UO-31
[46] = system: BT-549
[47] = system: MOLT-4
[48] = system: Malme-3M
[49] = system: HCT-116
[50] = system: SK-MEL-2
[51] = system: MCF7
[52] = system: KM12
[53] = system: CCRF-CEM
[54] = system: CAKI-1
[55] = system: MDA-MB-435
[56] = system: NCI-H226
[57] = system: RPMI-8226
[58] = system: SR
[59] = system: Hs-578T

Measured: GI50

COc1ccc(-c2nc(SCC(=O)NNC(=S)Nc3ccccc3)[nH]c2-c2ccc(OC)cc2)cc1
inactive: [1] 18.6 µM | [2] 39.9 µM | [3] 14.8 µM | [4] 74.5 µM | [5] 31.5 µM | [6] 20.8 µM | [7] 14.3 µM | [8] 28.8 µM | [9] 14.9 µM | [10] 35.2 µM | [11] 20.6 µM | [12] 21.4 µM | [13] 25.9 µM | [14] 22.9 µM | [15] 15.7 µM | [16] 23.7 µM | [17] 24.9 µM | [18] 33.8 µM | [19] 4.63 µM | [20] 27.2 µM | [21] 23.7 µM | [22] 16.6 µM | [23] 27.2 µM | [24] 16.6 µM | [25] 25.8 µM | [26] 23.1 µM | [27] 14 µM | [28] 17.5 µM | [29] 19.1 µM | [30] 20.8 µM | [31] 15.3 µM | [32] 19.6 µM | [33] 33.5 µM | [35] 26.9 µM | [36] 24.5 µM | [37] 28.7 µM | [38] 24.3 µM | [39] 40.6 µM | [40] 16.9 µM | [41] 22.7 µM | [42] 21.8 µM | [43] 17.7 µM | [44] 21.8 µM | [45] 45.9 µM | [46] 24 µM | [47] 3.46 µM | [48] 52.2 µM | [49] 25.8 µM | [50] 18.4 µM | [51] 20.5 µM | [52] 24.9 µM | [53] 22.7 µM | [54] 34.3 µM | [55] 18.2 µM
22.2 µM: [34]

OC1(c2ccccc2)CC2CCC(C1)N2CCCC(O)(c1ccccc1)c1ccccc1 (stereo unspecified)
14.2 µM: [34]
inactive: [56] 12.4 µM | [1] 15.5 µM | [2] 19.2 µM | [3] 2.2 µM | [4] 17.7 µM | [5] 17.1 µM | [6] 5.62 µM | [7] 16.4 µM | [8] 16.5 µM | [9] 3.2 µM | [10] 2.78 µM | [12] 11.9 µM | [13] 13.4 µM | [14] 15.5 µM | [57] 2.28 µM | [15] 4.54 µM | [16] 12.5 µM | [17] 11.2 µM | [18] 7.98 µM | [19] 22.9 µM | [58] 11.8 µM | [20] 13.8 µM | [21] 25.8 µM | [22] 14.3 µM | [23] 18.9 µM | [24] 21.3 µM | [25] 3.44 µM | [26] 4.99 µM | [27] 2.14 µM | [28] 15.1 µM | [29] 3.33 µM | [30] 2 µM | [31] 10.5 µM | [32] 10.6 µM | [33] 33.8 µM | [35] 7.33 µM | [36] 17.2 µM | [59] 4.83 µM | [37] 21.4 µM | [38] 17.7 µM | [39] 12.7 µM | [40] 11.9 µM | [41] 10.2 µM | [42] 16.7 µM | [43] 16.4 µM | [44] 20.7 µM | [45] 7.55 µM | [46] 13 µM | [47] 7.45 µM | [48] 15.9 µM | [49] 14.6 µM | [50] 20.3 µM | [51] 16.1 µM | [52] 15.3 µM | [53] 4.33 µM | [54] 14 µM | [55] 12 µM

O=C(Nc1nnc(-c2c(Cl)c(Cl)c(Cl)c(Cl)c2-c2nc3cc(C(=O)c4ccccc4)ccc3[nH]2)o1)c1ccc(Cl)cc1
22.5 µM: [34]
inactive: [56] 26.4 µM | [1] 12.8 µM | [2] 39.2 µM | [4] 26.7 µM | [5] 25.6 µM | [6] 20.5 µM | [7] 13.8 µM | [8] 25.9 µM | [9] 12.2 µM | [10] 37.9 µM | [11] 5.89 µM | [12] 26.8 µM | [14] 18.2 µM | [57] 81.7 µM | [15] 22.4 µM | [16] 30.3 µM | [17] 47.8 µM | [18] 29.2 µM | [19] 20.3 µM | [58] 4.88 µM | [20] 40.2 µM | [21] > 100 µM | [23] 48.6 µM | [24] 30.5 µM | [25] 25.1 µM | [26] 7.91 µM | [28] 32 µM | [29] 5.86 µM | [30] 36.8 µM | [31] 15.5 µM | [32] 34.8 µM | [33] 24.7 µM | [35] 57 µM | [36] 30.7 µM | [37] 58.6 µM | [38] 36.7 µM | [39] 51.9 µM | [40] 26.5 µM | [42] 17.9 µM | [43] 35.5 µM | [44] 34 µM | [45] 41.7 µM | [46] 41.9 µM | [47] 13.6 µM | [49] 36.5 µM | [50] 29.6 µM | [51] 20.2 µM | [52] 43.5 µM | [53] 6.27 µM | [54] 40.7 µM | [55] 6.31 µM

COc1ccc2c(c1)[n+]([O-])c1cc(C#N)ccc1[n+]2[O-]
active: [3] 0.547 µM | [5] 0.378 µM | [9] 0.893 µM | [12] 0.849 µM | [29] 0.767 µM | [31] 0.586 µM | [37] 1.1 µM | [43] 0.33 µM | [47] 0.316 µM
0.723 µM: [34]
inactive: [56] 3.78 µM | [1] 2.11 µM | [2] 15.4 µM | [4] 15.5 µM | [6] 6.56 µM | [7] 5.83 µM | [8] 24 µM | [10] 2.87 µM | [13] 13.3 µM | [15] 3.41 µM | [16] 13.6 µM | [17] 4.41 µM | [18] 4.88 µM | [19] 4.63 µM | [58] 4.08 µM | [20] 18.5 µM | [21] 15.2 µM | [22] 2.94 µM | [23] 12.5 µM | [24] 11.7 µM | [25] 2.43 µM | [26] 6.76 µM | [28] 3.72 µM | [30] 3.74 µM | [32] 3.3 µM | [33] 12.4 µM | [35] 4.34 µM | [36] 1.69 µM | [59] 2.07 µM | [38] 12.9 µM | [39] 3.21 µM | [40] 47.2 µM | [41] 5.62 µM | [42] 3.17 µM | [44] 7.87 µM | [45] 5.31 µM | [46] 10.2 µM | [48] 2.58 µM | [49] 11.1 µM | [50] 4.27 µM | [51] 4.84 µM | [52] 2.38 µM | [54] 4.09 µM | [55] 2.25 µM

CSC1=C(c2ccc(Cl)cc2)SC(N2CCCCC2)N1c1ccc([N+](=O)[O-])cc1 (stereo unspecified)
inactive: [56] 76.9 µM | [1] 20 µM | [2] 32.1 µM | [3] 23.6 µM | [4] 26.7 µM | [5] 29.2 µM | [6] 26.7 µM | [7] 21.8 µM | [8] 40.6 µM | [9] 14.6 µM | [10] 30.6 µM | [11] 39.4 µM | [12] 23 µM | [13] 41.3 µM | [14] 19 µM | [57] 16.6 µM | [15] 21.3 µM | [16] 31.6 µM | [17] 26.2 µM | [18] 29.8 µM | [19] 25.5 µM | [58] 31.3 µM | [20] 30.9 µM | [21] 28 µM | [22] 17.5 µM | [23] 27.1 µM | [24] 23.9 µM | [25] 18.5 µM | [26] 33 µM | [27] 41.9 µM | [28] 21.4 µM | [29] 24 µM | [30] 24.8 µM | [31] 27.1 µM | [32] 30.6 µM | [33] 23.3 µM | [35] 38.7 µM | [36] 25.2 µM | [59] 47.9 µM | [38] 38.8 µM | [39] 42.2 µM | [40] > 100 µM | [41] 24.2 µM | [43] 18.5 µM | [44] 28.8 µM | [45] 32.7 µM | [46] 27.3 µM | [47] 26 µM | [48] 45.2 µM | [49] 23 µM | [50] 20.5 µM | [51] 35.6 µM | [52] 31 µM | [53] 38.4 µM | [54] 44.8 µM | [55] 31.6 µM
26.1 µM: [34]
